35 compounds from USRE48711E1, “Apoptosis signal-regulating kinase inhibitors” (Gilead Sciences, Inc., priority 2009, dated 2021) can be followed below.

In the assay the target is ASK1 (Apoptosis Signal-Regulating Kinase 1) (Homo sapiens (Human), UniProt Q99683). Put plainly: ASK1 (Apoptosis Signal-Regulating Kinase 1) TR-FRET Kinase Assay (Biochemical IC50). The settings on record: TR-FRET, biotin-MBP substrate, 20 min pre-incubation, ATP added as 300 μM solution. On the technique in general: TR-FRET usually uses a lanthanide donor and a delayed reading to cut background.
ASK1 (Apoptosis Signal-Regulating Kinase 1), sequence (Q99683 649-946): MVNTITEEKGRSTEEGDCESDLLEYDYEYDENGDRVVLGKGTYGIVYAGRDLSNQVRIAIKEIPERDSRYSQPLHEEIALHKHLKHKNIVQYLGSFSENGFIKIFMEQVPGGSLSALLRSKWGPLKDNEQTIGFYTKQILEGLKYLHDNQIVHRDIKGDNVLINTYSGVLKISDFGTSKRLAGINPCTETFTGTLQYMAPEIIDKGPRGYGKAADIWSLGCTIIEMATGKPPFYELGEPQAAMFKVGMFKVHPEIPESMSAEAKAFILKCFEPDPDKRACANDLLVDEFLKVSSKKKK

The term IC50 denotes the midpoint of a concentration-inhibition curve. Low values mean greater potency, high ones weaker potency.

Method: The ability of compounds to inhibit ASK1 kinase activity was determined using a time resolved fluorescence resonance energy transfer [TR-FRET] assay utilizing biotinylated myelin basic protein [biotin-MBP] as the protein substrate. […] The enzyme was allowed to pre-incubate with compound for 20 minutes prior to initiating the kinase reaction with the addition of 5 μL/well 300 μM ATP in buffer (50 mM MOPS, pH 7.0, 5 mM Mg-acetate, 1 mM DTT, 5% DMSO) using the Decrac Fluidics Equator. The kinase reactions were allowed to proceed for 20 minutes at ambient temperature and were subsequently stopped with the addition of 5 μL/well 25 mM EDTA using the Deerac Fluidics Equator. […] The TR-FRET signal was then read on a Perkin. Elmer Envision plate reader after incubating the plates at ambient temperature for 2 hours.

Regarding `O=C(Nc1cccc(-c2nncn2C2CC2)c1)c1cc(-n2cncn2)ccn1` [Example 28, N-(3-(4-cyclopropyl-4H-1,2,4-triazol-3-yl)phenyl)-4-(1H-1,2,4-triazol-1-yl)picolinamide], the IC50 came to 110 nM.
Then `O=C(Nc1cccc(-c2nncn2C2CC2)c1F)c1cc(-c2ccc(C3CC3)nc2)ccn1` [Example 155, 6-cyclopropyl-N-(3-(4-cyclopropyl-4H-1,2,4-triazol-3-yl)-2-fluorophenyl)-3,4′-bipyridine-2′-carboxamide], with 10 nM; and `Nc1ncc(-c2ccnc(C(=O)Nc3cccc(-c4nncn4C4CC4)c3)c2)cn1` [Example 25, 4-(2-aminopyrimidin-5-yl)-N-(3-(4-cyclopropyl-4H-1,2,4-triazol-3-yl)phenyl)picolinamide], with 13 nM; and `O=C(Nc1cccc(-c2nncn2C2CC2)c1)c1cc(-c2ccc(OC3CCC3)nc2)ccn1` [Example 95, 6-cyclobutoxy-N-(3-(4-cyclopropyl-4H-1,2,4-triazol-3-yl)phenyl)-3,4′-bipyridine-2′-carboxamide], with 31 nM.
For `Cc1cc(-c2cccnc2)cc(C(=O)Nc2cccc(-c3nncn3C)c2)n1` [Example 46, 6′-methyl-N-(3-(4-methyl-4H-1,2,4-triazol-3-yl)phenyl)-3,4′-bipyridine-2′-carboxamide] the value was 212 nM.
For `O=C(Nc1cccc(-c2nncn2C2CC2)c1)c1cc(-n2cnc3ncccc32)ccn1` [Example 81, N-(3-(4-cyclopropyl-4H-1,2,4-triazol-3-yl)phenyl)-4-(1H-imidazo[4,5-b]pyridin-1-yl)picolinamide] the value was 16 nM; for `C[C@@H](n1cnnc1-c1cccc(NC(=O)c2cc(-c3cccnc3)ccn2)c1)C(F)(F)F` [Example 62, (R)-N-(3-(4-(1,1,1-trifluoropropan-2-yl)-4H-1,2,4-triazol-3-yl)phenyl)-3,4′-bipyridine-2′-carboxamide], 1240 nM; for `O=C(Nc1cccc(-c2nncn2C2CC2)n1)c1cccc(-n2cnc(C3CC3)c2)c1` [Example 192, 3-(4-cyclopropyl-1H-imidazol-1-yl)-N-(6-(4-cyclopropyl-4H-1,2,4-triazol-3-yl)pyridin-2-yl)benzamide], 7 nM.
On to `C[C@@H](O)[C@H](C)n1cnnc1-c1cccc(NC(=O)c2cc(-c3ccc(C4CC4)nc3)ccn2)n1` [Example 247, 6-cyclopropyl-N-(6-(4-((2S,3R)-3-hydroxybutan-2-yl)-4H-1,2,4-triazol-3-yl)pyridin-2-yl)-3,4′-bipyridine-2′-carboxamide], for which it took 10 nM to reach half-maximal inhibition (IC50).
Then `O=C(Nc1cccc(-c2nncn2C2CC2)c1)c1cc(-c2cnc3cc[nH]c3c2)ccn1` [Example 128, N-(3-(4-cyclopropyl-4H-1,2,4-triazol-3-yl)phenyl)-4-(1H-pyrrolo[3,2-b]pyridin-6-yl)picolinamide], with 6 nM.
Then `O=C(Nc1cccc(-c2nncn2C2CCCC2)c1)c1cc(-c2cccnc2)ccn1` [Example 40, N-(3-(4-cyclopentyl-4H-1,2,4-triazol-3-yl)phenyl)-3,4′-bipyridine-2′-carboxamide], with 75 nM; and `O=C(Nc1cccc(-c2nncn2C2CC2)n1)c1cccc(-n2cnc(C(O)C(F)(F)F)c2)c1` (centres unmarked) [Example 208, N-(6-(4-cyclopropyl-4H-1,2,4-triazol-3-yl)pyridin-2-yl)-3-(4-(2,2,2-trifluoro-1-hydroxyethyl)-1H-imidazol-1-yl)benzamide], with 5 nM.
Consider `O=C(Nc1cccc(-c2nncn2C2CC2)c1)c1cc(-c2cncc(F)c2)ccn1` [Example 60, N-(3-(4-cyclopropyl-4H-1,2,4-triazol-3-yl)phenyl)-5-fluoro-3,4′-bipyridine-2′-carboxamide], for which the IC50 stood at 23 nM.
Compound `CCc1ccc(-c2ccnc(C(=O)Nc3cccc(-c4nncn4C4CC4)c3)c2)cn1` [Example 106, N-(3-(4-cyclopropyl-4H-1,2,4-triazol-3-yl)phenyl)-6-ethyl-3,4′-bipyridine-2′-carboxamide] returned a half-inhibitory concentration (IC50) of 8 nM.
Then `Cc1ncn(-c2ccnc(C(=O)Nc3cccc(-c4nncn4C4CC4)n3)c2)c1C` [Example 160, N-(6-(4-cyclopropyl-4H-1,2,4-triazol-3-yl)pyridin-2-yl)-4-(4,5-dimethyl-1H-imidazol-1-yl)picolinamide], with 4 nM; and `Cn1cnc2cc(-c3ccnc(C(=O)Nc4cccc(-c5nncn5C5CC5)c4)c3)cnc21` [Example 143, N-(3-(4-cyclopropyl-4H-1,2,4-triazol-3-yl)phenyl)-4-(3-methyl-3H-imidazo[4,5-b]pyridin-6-yl)picolinamide], with 15 nM.
As for `O=C(Nc1cccc(-c2nncn2C2CC2)c1)c1cc(-c2cnc(C3CC3)c(Cl)c2)ccn1` [Example 135, 5-chloro-6-cyclopropyl-N-(3-(4-cyclopropyl-4H-1,2,4-triazol-3-yl)phenyl)-3,4′-bipyridine-2′-carboxamide], it took 131 nM to reach half-maximal inhibition (IC50).
For `O=C(Nc1cccc(-c2nncn2C2CC2)n1)c1cc(-n2cnc(C(O)C(F)(F)F)c2)ccn1` (centres unmarked) [Example 207, N-(6-(4-cyclopropyl-4H-1,2,4-triazol-3-yl)pyridin-2-yl)-4-(4-(2,2,2-trifluoro-1-hydroxyethyl)-1H-imidazol-1-yl)picolinamide] the value was 11 nM; for `O=C(Nc1cccc(-c2nncn2C2CC2)c1)c1cc(-n2ccnc2)ccn1` [Example 27, N-(3-(4-cyclopropyl-4H-1,2,4-triazol-3-yl)phenyl)-4-(1H-imidazol-1-yl)picolinamide], 11 nM.
On to `CC(C)n1cnnc1-c1cccc(NC(=O)c2cc(-n3cnc(C4CC4)c3)ccn2)c1` [Example 184, 4-(4-cyclopropyl-1H-imidazol-1-yl)-N-(3-(4-isopropyl-4H-1,2,4-triazol-3-yl)phenyl)picolinamide], for which half-maximal inhibition (IC50) required 20 nM.
Compound `O=C(Nc1cccc(-c2nncn2C2CC2)c1)c1cc(-c2ccc(C3CCC3)nc2)ccn1` [Example 103, 6-cyclobutyl-N-(3-(4-cyclopropyl-4H-1,2,4-triazol-3-yl)phenyl)-3,4′-bipyridine-2′-carboxamide] came in with an IC50 of 11 nM.
For `CN1CCN(c2ccnc(C(=O)Nc3cccc(-c4nncn4C)c3)c2)CC1` [Example 29, N-(3-(4-methyl-4H-1,2,4-triazol-3-yl)phenyl)-4-(4-methylpiperazin-1-yl)picolinamide] the value was 443 nM.
Then `COc1cncc(-c2ccnc(C(=O)Nc3cccc(-c4nncn4C)c3)c2)c1` [Example 11, 5-methoxy-N-(3-(4-methyl-4H-1,2,4-triazol-3-yl)phenyl)-3,4′-bipyridine-2′-carboxamide], with 40 nM; and `O=C(Nc1cccc(-c2nncn2C2CC2)c1)c1cc(-n2cnc3ccccc32)ccn1` [Example 37, 4-(1H-benzo[d]imidazol-1-yl)-N-(3-(4-cyclopropyl-4H-1,2,4-triazol-3-yl)phenyl)picolinamide], with 8 nM; and `O=C(Nc1cccc(-c2nncn2C2CC2)c1)c1cccc(-c2ccc(C3CC3)nc2)n1` [Example 263, 6′-cyclopropyl-N-(3-(4-cyclopropyl-4H-1,2,4-triazol-3-yl)phenyl)-2,3′-bipyridine-6-carboxamide], with 3600 nM.
Then `Cc1nc(C2CC2)cn1-c1ccnc(C(=O)Nc2cccc(-c3nncn3C3CC3)n2)c1` [Example 183, 4-(4-cyclopropyl-2-methyl-1H-imidazol-1-yl)-N-(6-(4-cyclopropyl-4H-1,2,4-triazol-3-yl)pyridin-2-yl)picolinamide], with 8 nM; and `O=C(Nc1cccc(-c2cncn2C2CC2)c1)c1cc(-c2cccnc2)ccn1` [Example 72, N-(3-(1-cyclopropyl-1H-imidazol-5-yl)phenyl)-3,4′-bipyridine-2′-carboxamide], with 36 nM.
Take `COc1ccc(-c2ccnc(C(=O)Nc3cccc(-c4nncn4C4CC4)c3)c2)cn1` [Example 21, N-(3-(4-cyclopropyl-4H-1,2,4-triazol-3-yl)phenyl)-6-methoxy-3,4′-bipyridine-2′-carboxamide]: the IC50 came to 12 nM.
For `O=C(Nc1ccc(F)c(-c2nncn2C2CC2)c1)c1cc(-c2ccc(C3CC3)nc2)ccn1` [Example 147, 6-cyclopropyl-N-(3-(4-cyclopropyl-4H-1,2,4-triazol-3-yl)-4-fluorophenyl)-3,4′-bipyridine-2′-carboxamide] the value was 400 nM; for `O=C(Nc1cccc(-c2nncn2C2CC2)c1)c1cc(-c2cnc3c(c2)CN(CC(F)(F)F)CC3)ccn1` [Example 161, N-(3-(4-cyclopropyl-4H-1,2,4-triazol-3-yl)phenyl)-4-(6-(2,2,2-trifluoroethyl)-5,6,7,8-tetrahydro-1,6-naphthyridin-3-yl)picolinamide], 9 nM.
Then `O=C(Nc1cccc(-c2nncn2C2CC2)c1)c1cc(-c2cnc3ccccc3c2)ccn1` [Example 84, N-(3-(4-cyclopropyl-4H-1,2,4-triazol-3-yl)phenyl)-4-(quinolin-3-yl)picolinamide], with 13 nM; and `Cc1ncn(-c2ccnc(C(=O)Nc3cccc(-c4nncn4C4CC4)c3)c2)c1C` [Example 43, N-(3-(4-cyclopropyl-4H-1,2,4-triazol-3-yl)phenyl)-4-(4,5-dimethyl-1H-imidazol-1-yl)picolinamide], with 8 nM.
The compound `Cc1c(-c2ccnc(C(=O)Nc3cccc(-c4nncn4C4CC4)c3)c2)cnn1C` [Example 90, N-(3-(4-cyclopropyl-4H-1,2,4-triazol-3-yl)phenyl)-4-(1,5-dimethyl-1H-pyrazol-4-yl)picolinamide] gave a half-maximal inhibitory concentration (IC50) of 38 nM.
In turn, `CN(C)c1ccc(-c2ccnc(C(=O)Nc3cccc(-c4nncn4C4CC4)c3)c2)cn1` [Example 91, N-(3-(4-cyclopropyl-4H-1,2,4-triazol-3-yl)phenyl)-6-(dimethylamino)-3,4′-bipyridine-2′-carboxamide] came in with a half-maximal inhibitory concentration (IC50) of 18 nM.
As for `O=C(Nc1cc(-c2nncn2C2CC2)ccn1)c1cc(-c2cccnc2)ccn1` [Example 164, N-(4-(4-cyclopropyl-4H-1,2,4-triazol-3-yl)pyridin-2-yl)-3,4′-bipyridine-2′-carboxamide], the IC50 came out at 18 nM.
